Data taken from patent publication US20210379204A1, “METHOD FOR CALCULATING TOLERANCE DOSE OF HUMAN BODY TO SUGAR ALCOHOL AND FUNCTIONAL SUGAR” (Zhejiang Huakang Pharmaceutical Co., Ltd., priority 2018, published 2021).

How the values were obtained:
[1] = tolerated dose of a 70 kg human body converted from the rat maximum tolerated dose (K = 56.0); conditions: rat dose N x conversion factor 56.0
Description: wherein K is a conversion factor between a 70 kg human body and a 200 g rat, which is 56.0; the maximum tolerated dose N of the rat to xylitol and the tolerated dose R of the human body to the xylitol are both in the unit of g/d; or,
wherein K is a conversion factor between a 70 kg human body and a 200 g rat, which is 56.0. The maximum tolerated dose N of the rat to xylitol and the tolerated dose R of the human body to the xylitol are both in the unit of g/d; or,
In the specific implementation, the maximum tolerated dose of the human body to a certain sugar alcohol or functional sugar recorded in the existing data is used as a reference value firstly. Taking xylitol as an example, the existing companies have declared that the daily intake of xylitol should not exceed 50 g. 50 g of xylitol is set as the reference value, and fluctuation is performed based on the reference value to obtain an estimated value of the experimental range. […] The experiment is continued for 14 days. Considering the experimental results and verification results comprehensively, the maximum tolerated dose N of 200 g rats to xylitol is obtained.

[2] = 200 g rats, gavage each day, 14 days; maximum dose group in which no rat has diarrhea on day 14
Description: at step 2, continuing the step 1 for 14 days;
At step 1, 200 g rats are selected as experimental animal objects, and the 200 g rats are divided into six experimental groups and one control group, with each group including ten numbered rats; and the rats in the six experimental groups (namely, dose (1) experimental group, dose (2) experimental group, dose (3) experimental group, dose (4) experimental group, dose (5) experimental group and dose (6) experimental group) are gavaged with different doses of xylitol each day. The ten rats in each group are gavaged with the same dose.
At step 2, the step 1 is continued for 14 days.
Specifically, 50 g of xylitol was set as the reference value, and estimated values of the experimental range of the human body to xylitol were set to 20 g/d, 30 g/d, 40 g/d, 50 g/d, 60 g/d and 70 g/d (six groups in total) according to the reference value. According to the conversion formula of drug doses of experimental animal and human body, the daily experimental dose of xylitol of 200 g rats was respectively obtained as 0.36 g/d, 0.54 g/d, 0.71 g/d, 0.89 g/d, 1.07 g/d and 1.25 g/d (six groups in total), and then experiments were performed respectively.
Similarly, estimated values of the human body to L-arabinose were respectively set to 70 g/d, 80 g/d, 90 g/d, 100 g/d, 110 g/d and 120 g/d (six groups in total) as the experimental range. According to the conversion formula of drug doses of experimental animal and human body, the daily experimental dose of L-arabinose of 200 g rats was respectively obtained as 1.25 g/d, 1.43 g/d, 1.61 g/d, 1.79 g/d, 1.96 g/d and 2.14 g/d (six groups in total), and then experiments were performed respectively.
Similarly, estimated values of the human body to sorbitol were respectively set to 5 g/d, 10 g/d, 15 g/d, 20 g/d, 25 g/d and 30 g/d (six groups in total) as the experimental range. […]

[3] = human daily intake, declared by some companies, no experimental data; cited from earlier work

| Structure (SMILES) | maximum tolerated dose R of the human body [1] | maximum tolerated dose N of 200 g rat [2] | daily intake should not exceed [3] |
| --- | --- | --- | --- |
| O=C[C@H](O)[C@@H](O)[C@@H](O)CO [L-arabinose] | 90 g/day | 1.61 g/day | ≤ 120 g |
| OC[C@@H](O)[C@@H](O)[C@H](O)[C@@H](O)CO [sorbitol] | 20 g/day | 0.36 g/day | – |
| OC[C@@H](O)[C@H](O)[C@@H](O)CO [xylitol] | 40 g/day | 0.71 g/day | – |
